Measurements from patent EP4667467A1, “PROTAC DEGRADERS OF MLLT1 AND/OR MLLT3” (Dark Blue Therapeutics Ltd, priority 2024, dated 2025).

Biological target: T1, MLLT1 (Homo sapiens, UniProt Q03111)
T1 construct: endogenous in cells; host or cells: MV4-11 (ATCC CRL-9591)
T1 sequence (Q03111 1-559): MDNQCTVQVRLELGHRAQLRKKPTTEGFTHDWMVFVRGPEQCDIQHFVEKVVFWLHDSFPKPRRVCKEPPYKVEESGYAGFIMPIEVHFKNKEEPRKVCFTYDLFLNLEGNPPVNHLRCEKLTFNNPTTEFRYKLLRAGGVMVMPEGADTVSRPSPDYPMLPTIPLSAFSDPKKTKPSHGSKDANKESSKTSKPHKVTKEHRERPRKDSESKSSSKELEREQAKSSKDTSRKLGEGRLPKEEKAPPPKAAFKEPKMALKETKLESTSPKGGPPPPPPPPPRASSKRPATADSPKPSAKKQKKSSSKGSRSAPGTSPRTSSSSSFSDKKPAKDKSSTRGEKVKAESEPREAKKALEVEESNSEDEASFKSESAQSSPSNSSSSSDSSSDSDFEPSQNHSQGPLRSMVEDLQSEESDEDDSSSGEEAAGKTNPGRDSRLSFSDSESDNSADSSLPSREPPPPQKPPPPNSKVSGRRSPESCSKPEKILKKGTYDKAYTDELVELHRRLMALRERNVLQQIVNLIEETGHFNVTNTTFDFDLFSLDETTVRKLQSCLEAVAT
Test: MLLT1 Degradation Assay (JESS automated chemiluminescent detection, MV4-11 cells)
Type: cell-based
Settings: 24h, with respect to DMSO control; for MLLT1 % Degradation @ 0.01 µM: 0.01 µM (10 nM) test compound; for MLLT1 % Degradation @ 0.1 µM: 0.1 µM (100 nM) test compound; for MLLT 1 % Degradation @ 1 µM: 1 µM (1000 nM) test compound
Experimental: MLLT1 degradation efficacy of compounds were tested in an automated chemiluminescent detection system (JESS, Cat# 004-650). […] 10 mM DMSO stocks were prepared, and cells were treated with three concentrations of test compounds viz. 1000, 100 and 10 nM at a final DMSO concentration of 0.1% and incubated for 24h at 37°C, 5% CO2. […] Post run, data were analysed using "Compass for SW" software for chemiluminescent detection. The peak area for each band was used for the calculation of MLLT1 degradation with respect to DMSO control. Data is shown as "MLLT1 % degradation".

MLLT1 % Degradation @ 0.1 µM | MLLT 1 % Degradation @ 1 µM | Structure (SMILES) | MLLT1 % Degradation @ 0.01 µM
A (Category A: A ≥ 75% degradation) | A (Category A: A ≥ 75% degradation) | CN1CCC[C@H]1c1cc2cnc(NC(=O)c3ccc(CCCNc4cccc5c4C(=O)N(C4CCC(=O)NC4=O)C5=O)cc3)cc2[nH]1 (stereo partly drawn) [Example 37, 4-(3-{[2-(2,6-dioxopiperidin-3-yl)-1,3-dioxoisoindol-4-yl]amino}propyl)-N-{2-[(2S)-1-methylpyrrolidin-2-yl]-1H-pyrrolo[3,2-c]pyridin-6-yl}benzamide] | B (Category B: 50% ≤ B < 75% degradation)
A (Category A: A ≥ 75% degradation) | A (Category A: A ≥ 75% degradation) | C[C@@H](C#Cc1cccc2c1CN(C1CCC(=O)NC1=O)C2=O)Oc1ccc(C(=O)Nc2cc3[nH]c([C@H]4CCCN4C)cc3cn2)cc1 (stereo partly drawn) [Example 24, 4-(((2S)-4-(2-(2,6-dioxopiperidin-3-yl)-1-oxoisoindolin-4-yl)but-3-yn-2-yl)oxy)-N-(2-((R)-1-methylpyrrolidin-2-yl)-1H-pyrrolo[3,2-c]pyridin-6-yl)benzamide] | A (Category A: A ≥ 75% degradation)
A (Category A: A ≥ 75% degradation) | A (Category A: A ≥ 75% degradation) | C[C@H](C#Cc1cccc2c1CN(C1CCC(=O)NC1=O)C2=O)Oc1ccc(C(=O)Nc2cc3[nH]c([C@H]4CCCN4C)cc3cn2)cc1 (stereo partly drawn) [Example 25, 4-(((2R)-4-(2-(2,6-dioxopiperidin-3-yl)-1-oxoisoindolin-4-yl)but-3-yn-2-yl)oxy)-N-(2-((R)-1-methylpyrrolidin-2-yl)-1H-pyrrolo[3,2-c]pyridin-6-yl)benzamide] | A (Category A: A ≥ 75% degradation)

The remaining lines, values behind:

Structure (SMILES) | MLLT1 % Degradation @ 0.1 µM | MLLT 1 % Degradation @ 1 µM | MLLT1 % Degradation @ 0.01 µM
CN1CCC[C@@H]1c1cc2cnc(NC(=O)c3ccc(-c4cnn(CCCC#Cc5cccc(C(=O)N[C@H]6CCC(=O)NC6=O)n5)c4)cc3)cc2[nH]1 [Example 62, N-((S)-2,6-dioxopiperidin-3-yl)-6-(5-(4-(4-((2-((R)-1-methylpyrrolidin-2-yl)-1H-pyrrolo[3,2-c]pyridin-6-yl)carbamoyl)phenyl)-1H-pyrazol-1-yl)pent-1-yn-1-yl) picolinamide] | A (Category A: A ≥ 75% degradation) | B (Category B: 50% ≤ B < 75% degradation) | B (Category B: 50% ≤ B < 75% degradation)
CN1CCC[C@@H]1c1cc2cnc(NC(=O)c3ccc(-c4ccn(CCCC#Cc5cccc6c5CN(C5CCC(=O)NC5=O)C6=O)n4)cc3)cc2[nH]1 (mixture of isomers) [Example 20, 4-(1-(5-(2-(2,6-dioxopiperidin-3-yl)-1-oxoisoindolin-4-yl)pent-4-yn-1-yl)-1H-pyrazol-3-yl)-N-(2-((R)-1-methylpyrrolidin-2-yl)-1H-pyrrolo[3,2-c]pyridin-6-yl)benzamide] | B (Category B: 50% ≤ B < 75% degradation) | C (Category C: 25% ≤ C < 50% degradation) | B (Category B: 50% ≤ B < 75% degradation)
CN1CCC[C@@H]1c1cc2cnc(NC(=O)CCCCCCNc3cccc4c3C(=O)N(C3CCC(=O)NC3=O)C4=O)cc2[nH]1 (stereo partly drawn) [Example 29, 7-{[2-(2,6-dioxopiperidin-3-yl)-1,3-dioxoisoindol-4-yl]amino}-N-{2-[(2R)-1-methylpyrrolidin-2-yl]-1H-pyrrolo[3,2-c]pyridin-6-yl}heptanamide] | C (Category C: 25% ≤ C < 50% degradation) | A (Category A: A ≥ 75% degradation) | D (Category D: D < 25% degradation)
